pIC50: −log10 of the molar value. Where two headings read alike, the source gives them in different places.
Tested on: IL-1β production in PMA-differentiated THP-1 cells
Assay: IL-1β production in PMA-differentiated THP-1 cells stimulated with gramicidin (hTHP-1 assay containing 2% fetal bovine serum; Procedures 1-3)
Assay type: cell-based, human
Conditions: read-out: hTHP-1 IC50 (Average IC50 of compounds in hTHP-1 assay)
Experimental: The following protocol is suitable for testing the activity of the compounds disclosed herein.
Procedure 1: IL-1β Production in PMA-Differentiated THP-1 Cells Stimulated with Gramicidin
THP-1 cells were purchased from the American Type Culture Collection and sub-cultured according to instructions from the supplier. Cells were cultured in complete RPMI 1640 (containing 10% heat inactivated FBS, penicillin (100 units/ml) and streptomycin (100 μg/ml)), and maintained in log phase prior to experimental setup. Prior to the experiment, compounds were dissolved in dimethyl sulfoxide (DMSO) to generate a 30 mM stock. The compound stock was first pre-diluted in DMSO to 3, 0.34, 0.042 and 0.0083 mM intermediate concentrations and subsequently spotted using Echo550 liquid handler into an empty 384-well assay plate to achieve desired final concentration (e.g. 100, 33, 11, 3.7, 1.2, 0.41, 0.14, 0.046, 0.015, 0.0051, 0.0017 μM). DMSO was backfilled in the plate to achieve a final DMSO assay concentration of 0.37%. The plate was then sealed and stored at room temperature until required.
THP-1 cells were treated with PMA (Phorbol 12-myristate 13-acetate) (20 ng/ml) for 16-18 hours. On the day of the experiment the media was removed and adherent cells were detached with trypsin for 5 minutes. Cells were then harvested, washed with complete RPMI 1640, spun down, and resuspended in RPMI 1640 (containing 2% heat inactivated FBS, penicillin (100 units/ml) and streptomycin (100 μg/ml). The cells were plated in the 384-well assay plate containing the spotted compounds at a density of 50,000 cells/well (final assay volume 50 μl). Cells were incubated with compounds for 1 hour and then stimulated with gramicidin (5 μM) (Enzo) for 2 hours. Plates were then centrifuged at 340 g for 5 min. Cell free supernatant (40 μL) was collected using a 96-channel PlateMaster (Gilson) and the production of IL-1β was evaluated by HTRF (cisbio). The plates were incubated for 18 h at 4° C. and read using the preset HTRF program (donor emission at 620 nm, acceptor emission at 668 nm) of the SpectraMax i3x spectrophotometer (Molecular Devices, software SoftMax 6). A vehicle only control and a dose titration of CRID3 (100-0.0017 μM) were run concurrently with each experiment.
Procedure 2: IL-1β Production in PMA-Differentiated THP-1 Cells Stimulated with Gramicidin
THP-1 cells were purchased from the American Type Culture Collection and sub-cultured according to instructions from the supplier. Prior to experiments, cells were cultured in complete RPMI 1640 (containing 10% heat inactivated FBS, penicillin (100 units/ml) and streptomycin (100 μg/ml)), and maintained in log phase prior to experimental setup. Prior to the experiment THP-1 were treated with PMA (Phorbol 12-myristate 13-acetate) (20 ng/ml) for 16-18 hours. Compounds were dissolved in dimethyl sulfoxide (DMSO) to generate a 30 mM stock. On the day of the experiment the media was removed and adherent cells were detached with trypsin for 5 minutes. Cells were then harvested, washed with complete RPMI 1640, spun down, resuspended in RPMI 1640 (containing 2% heat inactivated FBS, penicillin (100 units/ml) and streptomycin (100 μg/ml). The cells were plated in a 384-well plate at a density of 50,000 cells/well (final assay volume 50 μl). Compounds were first dissolved in assay medium to obtain a 5× top concentration of 500 μM. 10 step dilutions (1:3) were then undertaken in assay medium containing 1.67% DMSO. 5× compound solutions were added to the culture medium to achieve desired final concentration (e.g. 100, 33, 11, 3.7, 1.2, 0.41, 0.14, 0.046, 0.015, 0.0051, 0.0017 μM). Final DMSO concentration was at 0.37%. Cells were incubated with compounds for 1 hour and then stimulated with gramicidin (5 μM) (Enzo) for 2 hours. Plates were then centrifuged at 340 g for 5 min. Cell free supernatant (40 μL) was collected using a 96-channel PlateMaster (Gilson) and the production of IL-1β was evaluated by HTRF (cisbio). […]

[1] = Homo sapiens, THP-1, hTHP-1 assay containing 2% fetal bovine serum, class symbols
[2] = Homo sapiens, THP-1, hTHP-1 assay containing 2% fetal bovine serum, given as numeric bound
[3] = hTHP-1 assay containing 2% fetal bovine serum, class symbols

pIC50 [1] | pIC50 [2] | SMILES | also measured
 | < 4.52 | CC(C)(O)c1cnc(S(=N)(=O)NC(=O)Cc2c3c(cc4c2CCC4)CCC3)s1 (single isomer, unassigned) [Example 5] | 
5.30 to 6.00 |  | CC(C)(O)c1cnc(S(=N)(=O)NC(=O)Cc2c3c(cc4c2CCC4)CCC3)s1 (single isomer, unassigned) [Example 6] | 
 | < 4.52 | CC(C)c1cc(F)cc(C2CC2)c1CC(=O)N=S(N)(=O)c1ccc(CN(C)C)cc1 (single isomer, unassigned) [Example 46, (S)- or (R)-2-(2-cyclopropyl-4-fluoro-6-isopropylphenyl)-N-(4-((dimethylamino)methyl)phenyl-sulfonimidoyl)acetamide] | 
6.00 to 6.70 |  | CC(C)c1cc(F)cc(C2CC2)c1CC(=O)N=S(N)(=O)c1ccc(CN(C)C)cc1 (single isomer, unassigned) [Example 47, (R)- or (S)-2-(2-cyclopropyl-4-fluoro-6-isopropylphenyl)-N-(4-((dimethylamino)methyl)phenyl-sulfonimidoyl)acetamide] | 
5.30 to 6.00 |  | CC(C)c1cc(C#N)cc(C2CC2)c1CC(=O)N=S(N)(=O)c1ccc(CN(C)C)cc1F (single isomer, unassigned) [Example 62, (S)- or (R)-2-(4-cyano-2-cyclopropyl-6-isopropylphenyl)-N-(4-((dimethylamino)methyl)-2-fluorophenylsulfonimidoyl) acetamide] | 
 | < 4.52 | CC(C)c1cc(C#N)cc(C2CC2)c1CC(=O)N=S(N)(=O)c1ccc(CN(C)C)cc1F (single isomer, unassigned) [Example 63, (R)- or (S)-2-(4-cyano-2-cyclopropyl-6-isopropylphenyl)-N-(4-((dimethylamino)methyl)-2-fluorophenylsulfonimidoyl) acetamide] | 
6.00 to 6.70 |  | CC(C)(O)c1nc(CO)c(S(N)(=O)=NC(=O)Cc2c3c(cc4c2CCC4)CCC3)s1 (single isomer, unassigned) [Example 66, (S)- or (R)-2-(1,2,3,5,6,7-hexahydros-indacen-4-yl)-N-(4-(hydroxymethyl)-2-(2-hydroxypropan-2-yl)thiazol-5-ylsulfonimidoyl)acetamide] | 
 | < 4.52 | CC(C)(O)c1nc(CO)c(S(N)(=O)=NC(=O)Cc2c3c(cc4c2CCC4)CCC3)s1 (single isomer, unassigned) [Example 67, (R)- or (S)-2-(1,2,3,5,6,7-hexahydros-indacen-4-yl)-N-(4-(hydroxymethyl)-2-(2-hydroxypropan-2-yl)thiazol-5-ylsulfonimidoyl)acetamide] | 

Second part, the compound before the results:

SMILES | pIC50 [1] | pIC50 [2] | also measured
CC(C)c1cc(F)cc(C(C)C)c1CC(=O)NS(=N)(=O)c1ccc(C(C)(C)O)cc1 (single isomer, unassigned) [Example 2] | 5.30 to 6.00 |  | 
CC(C)c1cc(F)cc(C(C)C)c1CC(=O)NS(=N)(=O)c1ccc(C(C)(C)O)cc1 (single isomer, unassigned) [Example 3] |  | < 4.52 | 
CC(C)c1cc(F)cc(C(C)C)c1CC(=O)N[S@](=N)(=O)c1ncc(C(C)(C)O)s1 (single isomer, unassigned) [Example 8] | 5.30 to 6.00 |  | 
CC(C)c1cc(F)cc(C(C)C)c1CC(=O)N[S@@](=N)(=O)c1ncc(C(C)(C)O)s1 (single isomer, unassigned) [Example 9] | 6.00 to 6.70 |  | 
CC(C)c1cc(F)cc(C(C)C)c1CC(=O)N=S(N)(=O)c1sc(C(C)(C)O)cc1F (single isomer, unassigned) [Example 50, (S)- or (R)-2-(4-fluoro-2,6-diisopropylphenyl)-N-(3-fluoro-5-(2-hydroxypropan-2-yl)thiophen-2-ylsulfonimidoyl)acetamide] |  |  | pIC50 [3]: 7.40 to 8.10
CC(C)c1c(F)c(C#N)cc(C2CC2)c1CC(=O)N=S(N)(=O)c1sc(C(C)(C)O)cc1F (single isomer, unassigned) [Example 54, (S)- or (R)-2-(4-cyano-6-cyclopropyl-3-fluoro-2-isopropylphenyl)-N-(3-fluoro-5-(2-hydroxypropan-2-yl)thiophen-2-ylsulfonimidoyl)acetamide] |  |  | pIC50 [3]: 7.40 to 8.10
CC(C)c1cc(Cl)c(F)c(C2CC2)c1CC(=O)N=S(N)(=O)c1sc(C(C)(C)O)cc1F (single isomer, unassigned) [Example 56, (S)- or (R)-2-(4-chloro-2-cyclopropyl-3-fluoro-6-isopropylphenyl)-N-(3-fluoro-5-(2-hydroxypropan-2-yl)thiophen-2-ylsulfonimidoyl)acetamide] |  |  | pIC50 [3]: 6.00 to 6.70
CCc1cc(C#N)cc(C(C)C)c1CC(=O)N=S(N)(=O)c1ccc(CN(C)C)cc1 (single isomer, unassigned) [Example 58, (S)- or (R)-2-(4-cyano-2-ethyl-6-isopropylphenyl)-N-(4-((dimethylamino)methyl)phenyl-sulfonimidoyl)acetamide] |  | < 4.52 | 
CCc1cc(C#N)cc(C(C)C)c1CC(=O)N=S(N)(=O)c1ccc(CN(C)C)cc1 (single isomer, unassigned) [Example 59, (R)- or (S)-2-(4-cyano-2-ethyl-6-isopropylphenyl)-N-(4-((dimethylamino)methyl)phenyl-sulfonimidoyl)acetamide] | 4.52 to 5.30 |  | 
CC(C)c1cc(C#N)cc(C(C)C)c1CC(=O)N=S(N)(=O)c1sc(C(C)(C)O)nc1CO (single isomer, unassigned) [Example 64, (S)- or (R)-2-(4-cyano-2,6-diisopropylphenyl)-N-(4-(hydroxymethyl)-2-(2-hydroxypropan-2-yl)thiazol-5-ylsulfonimidoyl)acetamide] |  |  | pIC50 [3]: 6.00 to 6.70
COCc1cc(C(C)C)c(CC(=O)N=S(N)(=O)c2sc(C(C)(C)O)nc2CO)c(C(C)C)c1 (single isomer, unassigned) [Example 68, (S)- or (R)-2-(2,6-diisopropyl-4-(methoxymethyl)phenyl)-N-(4-(hydroxymethyl)-2-(2-hydroxypropan-2-yl)thiazol-5-ylsulfonimidoyl)acetamide] |  |  | pIC50 [3]: 6.00 to 6.70
CC(C)c1cc(C#N)cc(C(C)C)c1CC(=O)N=S(N)(=O)c1ccc(CN(C)C)cc1 (single isomer, unassigned) [Example 72, (S)- or (R)-2-(4-cyano-2,6-diisopropylphenyl)-N-(4-((dimethylamino)methyl)phenyl-sulfonimidoyl)acetamide] | 5.30 to 6.00 |  | 
CC(C)c1cc(C#N)cc(C(C)C)c1CC(=O)N=S(N)(=O)c1ccc(CN(C)C)cc1 (single isomer, unassigned) [Example 73, (R)- or (S)-2-(4-cyano-2,6-diisopropylphenyl)-N-(4-((dimethylamino)methyl)phenyl-sulfonimidoyl)acetamide] |  | < 4.52 | 
CC(C)c1cc(C#N)cc(C2CC2)c1CC(=O)N=S(N)(=O)c1ccc(CN(C)C)cc1 (single isomer, unassigned) [Example 74, (S)- or (R)-2-(4-cyano-2-cyclopropyl-6-isopropylphenyl)-N-(4-((dimethylamino)methyl)phenyl-sulfonimidoyl)acetamide] |  | < 4.52 | 
CC(C)c1cc(C#N)cc(C2CC2)c1CC(=O)N=S(N)(=O)c1ccc(CN(C)C)cc1 (single isomer, unassigned) [Example 75, (R)- or (S)-2-(4-cyano-2-cyclopropyl-6-isopropylphenyl)-N-(4-((dimethylamino)methyl)phenyl-sulfonimidoyl)acetamide] | 5.30 to 6.00 |  | 

Reference: patent publication US11370763B2, “Compounds and compositions for treating conditions associated with NLRP activity” (Novartis AG, priority 2017, dated 2022)
